Each structure is given as a SMILES string.

For the first assay, the target named is T1, FSHR (Homo sapiens, UniProt P23945).
T1 construct: expressed in transfected cells; host or cells: CHO (Cho-FSHR-LUC-1-1-43)
T1 sequence (P23945 18-695): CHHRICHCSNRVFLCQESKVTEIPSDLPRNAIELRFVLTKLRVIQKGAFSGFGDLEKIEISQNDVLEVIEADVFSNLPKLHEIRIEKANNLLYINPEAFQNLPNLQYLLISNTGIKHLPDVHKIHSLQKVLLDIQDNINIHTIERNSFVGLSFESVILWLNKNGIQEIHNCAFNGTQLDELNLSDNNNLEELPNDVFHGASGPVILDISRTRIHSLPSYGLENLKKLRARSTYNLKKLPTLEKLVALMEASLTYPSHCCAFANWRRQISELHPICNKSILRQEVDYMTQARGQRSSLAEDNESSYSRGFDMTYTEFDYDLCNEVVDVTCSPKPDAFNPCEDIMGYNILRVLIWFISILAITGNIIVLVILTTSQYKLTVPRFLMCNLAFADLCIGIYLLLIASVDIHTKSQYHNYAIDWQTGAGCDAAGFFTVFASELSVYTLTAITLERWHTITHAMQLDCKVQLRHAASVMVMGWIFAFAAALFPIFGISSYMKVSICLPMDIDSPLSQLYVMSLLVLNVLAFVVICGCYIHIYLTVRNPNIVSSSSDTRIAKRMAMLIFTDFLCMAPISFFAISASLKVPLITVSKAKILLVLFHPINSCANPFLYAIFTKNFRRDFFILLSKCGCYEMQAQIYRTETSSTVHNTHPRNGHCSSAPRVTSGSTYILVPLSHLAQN
Nature of the assay: EC50 of cyclic AMP production in CHO FSHR cells + EC20 FSH (Assay A). Format: cell-based. The following applies: cyclic AMP production in CHO FSHR cells + EC20 FSH (0.265 pM), HTRF. Here is the method: Example 24. EC50 of cyclic AMP production in CHO FSHR cells+EC20 FSH (Assay A)
2500 Cho-FSHR-LUC-1-1-43 cells were plated per well in 5 al of phenol red free DMEM/F12+1% FBS. Cells were plated in 384 well, solid white low volume plates (Greiner 784075) by Multidrop. Cells were assayed by adding 100 al of 2×EC20 FSH/IBMX in DMEM/F12+0.1% BSA) by Multidrop to 2 al of test compound stamped in 384 well plates (compounds are diluted 1:50). The final FSH concentration was 0.265 pM, and the final IBMX concentration was 200 μM. The compound plate map was as follows: Column 1: 2 μl of DMSO; Column 2: 2 μl of DMSO; Columns 3-12 and 13-24: 2 μl of test compound, diluted 1:4 in 100% DMSO, or 2 μl of FSH, diluted 1:4 in DMEM/F12+0.1% BSA. The starting concentration for FSH was 50 nM (final concentration was 0.5 nM). Furthermore, Column 23 contained 2 μl of EC100 FSH reference (100×) (diluted in DMEM/F12+0.1% BSA) at a final concentration of 0.5 nM, and Column 24 contained 2 μl of 1 mM AS707664/2 reference compound 2. 5 μl of compound+EC20 FSH mixture were transferred to cell plates (1:2 dilution into 5 μl of cell media) The plates were incubated at 37° C. for 1 h. 10 μl of mixed HTRF (CisBio #62AM4PEC) reagents were added per well and incubated at room temperature for 1 h. The plates were read on Envision using the cAMP HTRF—low volume 384 well protocol. The readout was the calculated fluorescence ratio (665 nm/620 nm). Values given in percent (%) indicate the percental effect (response) at a certain concentration of agonist relative to the maximum response of the FSH standard.
Broadly, the EC50 is the concentration giving half of the maximal effect. For the compound `CCC1(COC)CCCN1C(=O)c1nn(-c2ccsc2)c2c1COc1cc(OC)c(-c3ccn(C)n3)cc1-2` (centres unmarked) [Compound 128, (2-ethyl-2-(methoxymethyl)pyrrolidin-1-yl)(7-methoxy-8-(1-methyl-1H-pyrazol-3-yl)-1-(thiophen-3-yl)-1,4-dihydrochromeno[4,3-c]pyrazol-3-yl)methanone], the EC50 fell in the range of 0.01 to 0.1 µM.
Still for that read-out and setting: in the case of `COc1cc2c(cc1-c1cncc(C(N)=O)c1)-c1c(c(C(=O)N3CC[S+]([O-])CC3(C)C)nn1-c1cc(F)cc(F)c1)CO2` (centres unmarked) [Compound 163] it was below 0.01 µM; in that of `COc1cc2c(cc1-c1ccccc1C(N)=O)-c1c(c(C(=O)N(C)C(C)(C)C)nn1-c1cc(Cl)cc(Cl)c1)CO2` [Compound 98, N-tert-butyl-8-(2-carbamoylphenyl)-1-(3,5-dichlorophenyl)-7-methoxy-N-methyl-1,4-dihydrochromeno[4,3-c]pyrazole-3-carboxamide], below 0.01 µM.
On the same count and under the same terms, in the case of `COc1cc2c(cc1-c1cnn(CC(O)CO)c1)-c1c(c(C(=O)N(C)C(C)(C)C)nn1-c1cc(Cl)cc(Cl)c1)CO2` (single isomer, unassigned) [Compound 192, N-tert-butyl-1-(3,5-dichlorophenyl)-8-(1-(2,3-dihydroxypropyl)-1H-pyrazol-4-yl)-7-methoxy-N-methyl-1,4-dihydrochromeno[4,3-c]pyrazole-3-carboxamide] it was 0.101 to 0.5 µM; in that of `COc1cc(Cl)cc(-n2nc(C(=O)N(C)C(C)(C)C)c3c2-c2cc(-c4cncc(C#N)c4)c(OC)cc2OC3)c1` [Compound 35, N-tert-butyl-1-(3-chloro-5-methoxyphenyl)-8-(5-cyanopyridin-3-yl)-7-methoxy-N-methyl-1,4-dihydrochromeno[4,3-c]pyrazole-3-carboxamide], below 0.01 µM; in that of `COc1cc(OC)cc(-n2nc(C(=O)N3CC[S+]([O-])CC3(C)C)c3c2-c2cc(-c4cncc(C)c4)c(OC)cc2OC3)c1` (centres unmarked) [Compound 45, (1-(3,5-dimethoxyphenyl)-7-methoxy-8-(5-methylpyridin-3-yl)-1,4-dihydrochromeno[4,3-c]pyrazol-3-yl)(S-oxo-3,3-dimethylthiomorpholino)methanone], below 0.01 µM.
The same measure, in the same setting: the same measure for `COc1cc(OC)cc(-n2nc(C(=O)N(C)C(C)(C)C)c3c2-c2cc(-c4nn(C)cc4C(N)=O)c(OC)cc2OC3)c1` [Compound 144, N-tert-butyl-8-(4-carbamoyl-1-methyl-1H-pyrazol-3-yl)-1-(3,5-dimethoxyphenyl)-7-methoxy-N-methyl-1,4-dihydrochromeno[4,3-c]pyrazole-3-carboxamide]: above 0.5 µM; for `COc1cc2c(cc1-c1ccn(C)n1)-c1c(c(C(=O)N3CCS(=O)(=O)CC3(C)C)nn1-c1cc(Cl)cc(Cl)c1)CO2` [Compound 13, 4-{[1-(3,5-dichlorophenyl)-7-methoxy-8-(1-methyl-1H-pyrazol-3-yl)-1H,4H-chromeno[4,3-c]pyrazol-3-yl]carbonyl}-3,3-dimethyl-1l{6},4-thiomorpholine-1,1-dione]: 0.01 to 0.1 µM; for `COc1cc2c(cc1-c1ccc(F)c(C(=O)O)c1)-c1c(c(C(=O)N(C)C(C)(C)C)nn1-c1cc(Cl)cc(Cl)c1)CO2` [Compound 180]: 0.01 to 0.1 µM.
`COc1cc2c(cc1CC(C)C)-c1c(c(C(=O)N(C)C(C)(C)C#N)nn1-c1ccsc1)CO2` [Compound 133, N-(2-cyanopropan-2-yl)-8-isobutyl-7-methoxy-N-methyl-1-(thiophen-3-yl)-1,4-dihydrochromeno[4,3-c]pyrazole-3-carboxamide]: the EC50 is below 0.01 µM.
Same read-out and setting: in the case of `COc1cc(OC)cc(-n2nc(C(=O)N3CCOCC3(C)C)c3c2-c2cc(-c4ccccn4)c(OC)cc2OC3)c1` [Compound 47, (1-(3,5-dimethoxyphenyl)-7-methoxy-8-(pyridin-2-yl)-1,4-dihydrochromeno[4,3-c]pyrazol-3-yl)(3,3-dimethylmorpholino)methanone] it was 0.01 to 0.1 µM; in that of `COc1cc2c(cc1-c1ccn(C)n1)-c1c(c(C(=O)N3CCC(S(C)(=O)=O)CC3(C)C)nn1-c1ccsc1)CO2` (centres unmarked) [Compound 129, (2,2-dimethyl-4-(methylsulfonyl)piperidin-1-yl)(7-methoxy-8-(1-methyl-1H-pyrazol-3-yl)-1-(thiophen-3-yl)-1,4-dihydrochromeno[4,3-c]pyrazol-3-yl)methanone], 0.01 to 0.1 µM.
The same measure, in the same setting: in the case of `COc1cc(OC)cc(-n2nc(C(=O)N(CCO)C(C)(C)C)c3c2-c2cc(-c4ccn(C)n4)c(OC)cc2OC3)c1` [Compound 124, N-tert-butyl-1-(3,5-dimethoxyphenyl)-N-(2-hydroxyethyl)-7-methoxy-8-(1-methyl-1H-pyrazol-3-yl)-1,4-dihydrochromeno[4,3-c]pyrazole-3-carboxamide] it was 0.01 to 0.1 µM; in that of `COc1cc2c(cc1C#CC(N)=O)-c1c(c(C(=O)N(C)C(C)(C)C)nn1-c1ccsc1)CO2` [Compound 186, 8-(3-amino-3-oxoprop-1-ynyl)-N-tert-butyl-7-methoxy-N-methyl-1-(thiophen-3-yl)-1,4-dihydrochromeno[4,3-c]pyrazole-3-carboxamide], 0.01 to 0.1 µM.
Consider `COc1cc2c(cc1[C@H]1C[C@@H]1C(=O)O)-c1c(c(C(=O)N(C)C(C)(C)C)nn1-c1cc(F)cc(F)c1)CO2` (racemic) [Compound 205], for which the EC50 lay in the range of 0.01 to 0.1 µM.
On the same count and under the same terms, in the case of `COc1cc2c(cc1-c1ccccn1)-c1c(c(C(=O)N3CCOCC3(C)C)nn1-c1cc(Cl)cc(Cl)c1)CO2` [Compound 11, (1-(3,5-dichlorophenyl)-7-methoxy-8-(pyridin-2-yl)-1,4-dihydrochromeno[4,3-c]pyrazol-3-yl)(3,3-dimethylmorpholino)methanone] it was below 0.01 µM; in that of `COc1cc2c(cc1-c1cnoc1C)-c1c(c(C(=O)N(C)C(C)(C)C)nn1-c1cc(Cl)cc(Cl)c1)CO2` [Compound 15, N-tert-butyl-1-(3,5-dichlorophenyl)-7-methoxy-N-methyl-8-(5-methylisoxazol-4-yl)-1,4-dihydrochromeno[4,3-c]pyrazole-3-carboxamide], below 0.01 µM.
On the same count and under the same terms, the same measure for `COc1cc2c(cc1-c1ccn(C)n1)-c1c(c(C(=O)N3CCCC3(CO)CC(C)C)nn1-c1ccsc1)CO2` (centres unmarked) [Compound 126, (2-(hydroxymethyl)-2-isobutylpyrrolidin-1-yl)(7-methoxy-8-(1-methyl-1H-pyrazol-3-yl)-1-(thiophen-3-yl)-1,4-dihydrochromeno[4,3-c]pyrazole-3-yl)methanone]: 0.01 to 0.1 µM.

The target of a further assay is T2, follicle-stimulating hormone (FSH) receptor (Rattus norvegicus, UniProt P20395).
T2 construct: endogenous in cells; host or cells: rat granulosa cells
T2 sequence (P20395 18-692): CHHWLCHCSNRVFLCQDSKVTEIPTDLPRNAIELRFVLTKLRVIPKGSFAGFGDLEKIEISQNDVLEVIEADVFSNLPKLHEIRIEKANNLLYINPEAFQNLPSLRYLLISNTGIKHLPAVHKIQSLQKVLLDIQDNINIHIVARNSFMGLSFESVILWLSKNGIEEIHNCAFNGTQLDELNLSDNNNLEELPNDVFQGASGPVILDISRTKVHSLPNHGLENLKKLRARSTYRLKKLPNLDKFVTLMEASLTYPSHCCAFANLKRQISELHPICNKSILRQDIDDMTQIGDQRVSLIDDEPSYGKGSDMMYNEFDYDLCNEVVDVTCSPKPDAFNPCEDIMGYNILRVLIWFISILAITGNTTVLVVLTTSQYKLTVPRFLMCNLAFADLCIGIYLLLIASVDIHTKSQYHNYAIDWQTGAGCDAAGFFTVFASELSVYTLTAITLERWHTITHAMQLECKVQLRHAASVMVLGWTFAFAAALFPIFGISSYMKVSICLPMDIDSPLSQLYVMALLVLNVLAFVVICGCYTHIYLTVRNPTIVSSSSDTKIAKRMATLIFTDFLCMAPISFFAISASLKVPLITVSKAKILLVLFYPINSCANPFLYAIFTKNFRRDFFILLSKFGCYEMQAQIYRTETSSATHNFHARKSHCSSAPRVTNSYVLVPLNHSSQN
Description: Rat granulosa EC50 FSH (Assay B). Format: cell-based.
Settings: not given
Here is the method: Example 25. Rat granulosa EC50 FSH (Assay B)
The assay was performed pursuant to the teaching of Yanofsky et al. (2006) Allosteric activation of the follicle-stimulating hormone (FSH) receptor by selective, nonpeptide agonists (JBC 281(19): 13226-13233, which is incorporated by reference in the disclosure of the invention).
Compound `COc1cc2c(cc1-c1cncc(C(N)=O)c1)-c1c(c(C(=O)N3CC[S+]([O-])CC3(C)C)nn1-c1cc(F)cc(F)c1)CO2` (centres unmarked) [Compound 163] showed an EC50 of 0.101 to 0.5 µM.
The same measure, in the same setting: the same measure for `COc1cc2c(cc1-c1ccccc1C(N)=O)-c1c(c(C(=O)N(C)C(C)(C)C)nn1-c1cc(Cl)cc(Cl)c1)CO2` [Compound 98, N-tert-butyl-8-(2-carbamoylphenyl)-1-(3,5-dichlorophenyl)-7-methoxy-N-methyl-1,4-dihydrochromeno[4,3-c]pyrazole-3-carboxamide]: 0.101 to 0.5 µM.

(Values after patent US10941152B2, “Pyrazole compounds as modulators of FSHR and uses thereof” (TOCOPHERX, INC., priority 2014, dated 2021).)
